From US9457041B2, “Controlled release nanoparticles and methods of use” (NDSU Research Foundation, priority 2014, dated 2016)

How the values were obtained:
recombinant human MMP-9 = recombinant human MMP-9 (Homo sapiens, UniProt P14780); experiment: CD spectroscopy of triple helicity of nanovesicle-incorporated lipopeptide; type: biochemical
Description: The lipopeptide LP [CH3(CH2)16CONH-[…](GPO)4GG-COOH] was synthesized by employing microwave assisted solid phase peptide synthesizer (Liberty, CEM Corporation, Matthews, S.C.) by following the protocol previously established in our laboratory (Pompella et al., Biochem pharm 2003, 66 (8), 1499-1503). The lipopeptide was purified by reverse phase HPLC (Shimadzu Scientific Instruments) using a diphenyl semi-preparatory column (Grace Vydac, 300 Å pore diameter silica, 5 μm particle size, 10 mm×250 mm) as the stationary phase. A linear gradient (0-70%) of acetonitrile (with 0.1% trifluoroacetic acid) in water (with 0.1% trifluoroacetic acid) was used at a flow rate of 8 mL/min over 60 min. The chromatogram was recorded at 235 nm using a UV detector. After freeze drying the eluents, the peptide was characterized employing MALDI-TOF mass spectrometry with an AB 4800 MALDI TOF/TOF mass analyzer. An observed mass of 2332.3 Da in MALDI spectra confirmed the LP (calculated mass: 2332.2 Da). The collagen mimetic triple helical structure of the lipopeptide was assessed by CD spectrometry employing a Jasco J-815 CD spectrometer with a quartz cuvette of 1 mm path length. The positive peak at 222 nm and the negative peak at 198 nm confirmed the triple helical structure of collagen mimetic peptide.20 For the CD spectroscopic studies, 32 accumulations were recorded for each spectra.

MIAPaCa-2 cells = experiment: Alamar Blue assay with a monolayer cell culture; type: cell-based; conditions: Homo sapiens, MIA PaCa-2, MIAPaCa-2 monolayer, 10 μM gemcitabine or equivalent encapsulated, 72 hours
Protocol: (§1) Pancreatic-cancer cell lines PANC-1 and MIAPaCa-2 were obtained from American Type Culture Collection (Manassas, Va.). PANC-1 cells were cultured in RPMI media (without phenol red) that were supplemented with 2% antibiotics (penicillin, streptomycin) and 10% v/v fetal bovine serum. The MIAPaCa-2 cells were cultured in DMEM media that were supplemented with 2% horse serum and 2% antibiotics. All cell lines were grown at 37° C. in a humidified atmosphere containing 5% CO2.
(§2) Cytotoxicity of the encapsulated gemcitabine was measured by treating the PANC-1 and MIAPaCa-2 cells with nanovesicles. The cells were incubated (1,000 per well) in a 96-well plate after trypsinizing the flask and making a cell suspension. RPMI media (100 μL) were added to each well. Cells were allowed to grow for one doubling time. The plate was divided into three groups: control, gemcitabine treated and gemcitabine-encapsulated nanovesicles treated. Six replicates were recorded for each sample. […] The treatment was carried out for 3 days, and cell toxicity was recorded after 72 hours with the Alamar Blue assay by following the supplier's (Life Technologies) protocol. Alamar Blue solution (10 μL) was added to all the wells and incubated for 2 hours, and the absorbance was recorded at 585 nm for cytotoxicity calculation (FIG. 15).

PANC-1 cells = experiment: Alamar Blue assay with a monolayer cell culture; type: cell-based; conditions: Homo sapiens, PANC-1 monolayer, 10 μM gemcitabine or equivalent encapsulated, 72 hours
Protocol: as §1, §2

recombinant human MMP-9, sequence (P14780 94-707): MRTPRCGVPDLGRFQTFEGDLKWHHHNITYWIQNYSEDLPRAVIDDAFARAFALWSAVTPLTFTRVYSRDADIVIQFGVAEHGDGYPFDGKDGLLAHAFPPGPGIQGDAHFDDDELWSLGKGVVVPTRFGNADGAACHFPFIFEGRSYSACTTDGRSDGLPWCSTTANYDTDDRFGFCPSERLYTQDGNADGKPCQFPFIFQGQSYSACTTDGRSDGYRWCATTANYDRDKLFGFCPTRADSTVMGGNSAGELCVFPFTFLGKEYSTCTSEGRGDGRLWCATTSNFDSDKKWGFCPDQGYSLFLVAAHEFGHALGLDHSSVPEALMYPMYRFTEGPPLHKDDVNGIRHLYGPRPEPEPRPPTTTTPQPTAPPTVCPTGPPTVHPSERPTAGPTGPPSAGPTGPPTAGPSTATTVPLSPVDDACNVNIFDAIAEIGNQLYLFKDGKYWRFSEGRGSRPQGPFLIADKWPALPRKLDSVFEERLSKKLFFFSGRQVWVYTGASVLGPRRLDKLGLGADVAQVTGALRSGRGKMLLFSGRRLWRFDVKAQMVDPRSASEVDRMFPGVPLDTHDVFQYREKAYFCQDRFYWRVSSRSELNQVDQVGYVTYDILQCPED

| triple helicity of LP (CD) (recombinant human MMP-9; 2 μM recombinant human MMP-9, 60 minutes) | triple helicity of nanovesicle-incorporated LP (CD) (recombinant human MMP-9; GSH (50 μM), 1 hour) | Compound | viability at 10 µM (MIAPaCa-2 cells) | viability at 10 µM (PANC-1 cells) |
| --- | --- | --- | --- | --- |
| considerably reduced | unchanged | CH3(CH2)16CONH-GPQGIAGQR(GPO)4GG-COOH [LP] |  |  |
|  |  | Nc1ccn([C@@H]2O[C@H](CO)[C@@H](O)C2(F)F)c(=O)n1 [gemcitabine] | 45 to 50% | 30 to 35% |
